{"source": "paper PMC13144739", "about": "“Global analysis of cancer cell responses to USP9X inhibition” (The EMBO Journal, 2026)", "key": {"MDA-MB-231 cells": {"test_system": "MDA-MB-231 cells", "experiment": "Colony formation assay, MDA-MB-231", "type": "cell-based, human", "details": "10 µM, 7–12 days", "procedure": "(§1) Cells were seeded at low density (200–4000 cells per well) after initial optimisation in a six-well tissue culture-treated plate (Falcon). Twenty-four hours post seeding, media was replaced, and the inhibitor was added. Cells were left to grow into colonies between 7 and 12 days, depending on the cell line. For analysis, the media was removed, and the cells were fixed with 10% (w/v) formalin for 10 min. Colonies were stained with crystal violet (Sigma-Aldrich, 0.5% [w/v] in 20% [v/v] MeOH) for 10 min and washed thrice with distilled H2O. Plates were imaged using the ChemiDoc imaging system (Bio-Rad) and analysed using the ImageJ ColonyArea plugin as described previously (Guzmán et al, [2014])."}, "SK-MEL-2 cells [1]": {"test_system": "SK-MEL-2 cells", "experiment": "NCI-60 cancer cell panel, SK-MEL-2", "type": "cell-based, human", "details": "10 µM, 3 days", "procedure": "Inhibitors were tested at 10 µM. Data shown is the mean of two technical replicates and is shown relative to the no-drug control, and relative to the time zero number of cells."}, "CEP55": {"test_system": "CEP55", "experiment": "CEP55 degradation by Western Blot in MDA-MB-231 cells", "type": "cell-based, human", "procedure": "The next day, cells were lysed in DISC lysis buffer (20 mM TRIS/HCl [pH 7.5], 150 mM NaCl, 2 mM EDTA [pH 8.0], 1% [v/v] Triton X 100, 10% [v/v] glycerol) supplemented with 2% (w/v) SDS and PhosSTOP tablets (Roche). To shred DNA, DISC lysates were run through polypropylene columns (Pierce). […] Next, membranes were washed twice in TBS-T and incubated with primary antibodies at 4 °C o/n. Primary antibodies were diluted in antibody dilution buffer (5% [w/v] BSA [pH 5.2, Sigma-Aldrich] in TBS-T with 0.04% [v/v] sodium azide) as per the manufacturer’s instructions. […] Next, membranes were washed four times for 5 min each in TBS-T. Membranes were developed in ECL (Bio-Rad) and imaged using the ChemiDoc imaging system (Bio-Rad). Images were processed using Image Lab software.\nAppendix Fig S4. WEHI-092 phenotypes across cell lines.\n(A) IC50 of USP9X inhibitors in MDA-MB-231 cells measured via degradation of the USP9X substrate CEP55 by Western Blot. The compounds were incubated with cells for […]\nbiological repeats. Error bars, s.e.m. (B) Western Blot analysis of USP9X expression levels across a subset of cell lines used in this study. Representative blot from two independent biological repeats is shown with Actin as a sample loading control. l.p. - low passage; h.p. - high passage. […]\nRight, quantification of images plotted as dose-dependent colony area. […]"}, "HUVECs": {"test_system": "HUVECs", "experiment": "IncuCyte live-cell imaging, HUVEC", "type": "cell-based", "procedure": "(§2) Cells were seeded at varying densities (1000–8000 cells per well) after initial optimisation in a 96-well tissue culture-treated plate (Thermo Fisher Scientific). Cells were incubated o/n, and the next day, inhibitors and controls diluted in cell media were added to the cells to a final volume of 200 μL per well. Cell death was measured using PI (Sigma-Aldrich). Cells were imaged with four images per well every 2 h for up to 96 h using the IncuCyte live-cell analysis system (S3, Sartorius). Cell proliferation data were analysed using Microsoft Excel by normalising confluence to control conditions. For cell killing readouts, the number of PI-positive cells was normalised to the control conditions for each timepoint."}, "MDA-MB-468 cells": {"test_system": "MDA-MB-468 cells", "experiment": "Colony formation assay, MDA-MB-468", "type": "cell-based, human", "details": "10 µM, 7–12 days", "procedure": "as §1"}, "UO-31 cells": {"test_system": "UO-31 cells", "experiment": "IncuCyte live-cell imaging cell death (PI uptake), UO-31", "type": "cell-based, human", "procedure": "as §2"}, "SK-MEL-2 cells [2]": {"test_system": "SK-MEL-2 cells", "experiment": "Lattice light sheet imaging of mitosis, SK-MEL-2", "type": "cell-based, human", "details": "15 µM, imaged 24-48 h", "procedure": "MDA-MB-231, MiaPaca2, HMEC-1, SK-MEL-2 and UO-31 cells were seeded at 2–15 × 10^4 cells/mL in 8-well glass µ-slides (ibidi). […] SPY650-Tubulin, SPY555-DNA (both Spirochrome, Inc.), and Annexin V FITC (Sigma-Aldrich) were added at a final concentration of 1 in 1000. Cells were left to grow for 24 h before time-lapse live-cell data were acquired using a Lattice Light Sheet 7 (Zeiss). […] Aberration correction was set to a value of 170 to minimise aberrations as determined by imaging the Point Spread Function using 100 nm fluorescent microspheres. Data were collected with a frame time of 10 ms and a z step of 0.4 μm with 834 frames per 290 μm by 290 μm. Individual regions were imaged in parallel across six wells of the eight-well chamber slide. Data are presented as Maximum Intensity Projections (MIPs), and these MIPs were used for all downstream analysis. Tile regions were imaged for 24 h with 10 min intervals at 37 °C, 5% CO2. Analysis was performed using the MIPs of the different full fields of cells over the 24–48 h time period. Mitosis and mitosis arrest were classified through a combination of automated image analysis and manual validation. […] Small erroneous detected spots were further removed through a manually adjusted size filter. […] The mean intensity of all tracks was then measured to determine mitosis and mitosis arrest. […]"}}}
{"smiles": "Cc1[nH]c2ccc(C(=O)N3CCN(S(=O)(=O)c4ccc5c(c4)OCCO5)CC3)cc2c1C", "note": "[WEHI-092]", "values": [{"measurement": "clonogenic potential, MDA-MB-231", "setting": "MDA-MB-231 cells", "result": "strong decrease in proliferative capacity"}, {"measurement": "cell growth, SK-MEL-2", "setting": "SK-MEL-2 cells [1]", "result": "stalling cell growth completely"}, {"measurement": "IC50", "setting": "CEP55; Homo sapiens, MDA-MB-231 cells, 24 h, read-out: apparent IC50 (CEP55 destabilisation, based on Western blotting)", "result": 1300, "unit": "nM"}, {"measurement": "CEP55 protein level", "setting": "CEP55; dose-dependent, Western blot", "result": "destabilised"}, {"measurement": "toxicity to HUVECs", "setting": "HUVECs", "result": "non-lethal and non-toxic"}, {"measurement": "clonogenic potential, MDA-MB-468", "setting": "MDA-MB-468 cells", "result": "strong decrease in proliferative capacity"}, {"measurement": "cell killing of UO-31 cells (IncuCyte)", "setting": "UO-31 cells", "result": "killed"}, {"measurement": "cell division phenotype, SK-MEL-2", "setting": "SK-MEL-2 cells [2]", "result": "significant defects in cell division"}]}
